Measured values as given in US11407761B2, “Derivative of β-apopicropodophyllin and method of preparing thereof” (J&C Sciences, priority 2020, dated 2022).
pIC50: −log10 of the molar value.

Tests used:
A549 = experiment: PrestoBlue cell viability, A549; type: cell-based, Human
Procedure: (§1) Human lung cancer cells A549, NCl-H460 and 7 cancer cell lines were cultured in RPMI 1640 medium containing 10% FBS (Gibco, USA) and 1% penicillin-streptomycin. Human colon cancer cell HCT-116 cell line was cultured in McCoy's 5A medium containing 10% FBS (Gibco, USA) and 1% penicillin-streptomycin. Human leukemia cancer cell HL-60 cell line was cultured in IMDM medium containing 20% FBS (Gibco, USA) and 1% penicillin-streptomycin. Human normal cell line WI-38 was cultured in MEM containing 10% FBS (Gibco, USA), 1% penicillin-streptomycin, and 1% Non-Essential Amin Acids solution. Human normal cell line HUVEC cultured in Human Endothelial Growth Medium containing. All the cells were cultured in sterilized cell culture plastic dishes or 96-well plastic plates in a humidified incubator filled with 95% air and 5% CO2 gas and maintained at a temperature of 37° C.
(§2) First, the cells are seeded in a 96-well plate (Nunc, 165305) at a volume of 100 μl, and then cultured in an incubator overnight to confirm that they grow well on the plate. Depending on the concentration of the drugs, each well is treated with 100 μl of the compound and then incubated to allow cells and compounds to react for 48 hrs. PrestoBlue Cell Viability Reagent (Invitrogen, A13262) was added to the compound-treated well, and then the plates were incubated in a humidified incubator at 37° C. for 30 mins. Each well was measured at a fluorescence detected with the wavelength of an excitation of 560 nm and an emission of 590 nm using by microplate reader (BioTek, Synergy H1). The IC50 value is calculated by using the Gen5 software.

H460 = experiment: PrestoBlue cell viability, H460; type: cell-based, Human; settings: lung
Procedure: as §1, §2

H1299 = experiment: PrestoBlue cell viability, H1299; type: cell-based; settings: Homo sapiens, NCI-H1299; lung, H1299, 48 h
Procedure: as §1, §2

H1650 = experiment: PrestoBlue cell viability, H1650; type: cell-based; settings: Homo sapiens, NCI-H1650; lung, H1650, 48 h
Procedure: as §1, §2

H1975 = experiment: PrestoBlue cell viability, H1975; type: cell-based; settings: Homo sapiens, NCI-H1975; lung, H1975, 48 h
Procedure: as §1, §2

HCC827 = experiment: PrestoBlue cell viability, HCC827; type: cell-based; settings: Homo sapiens; lung, HCC827, 48 h
Procedure: as §1, §2

H146 = experiment: PrestoBlue cell viability, H146; type: cell-based; settings: Homo sapiens, NCI-H146; lung, H146, 48 h
Procedure: as §1, §2

MCF-7 = experiment: PrestoBlue cell viability, MCF-7; type: cell-based; settings: Homo sapiens, MCF7; breast, MCF-7, 48 h
Procedure: as §1, §2

MDA-MB-231 = experiment: PrestoBlue cell viability, MDA-MB-231; type: cell-based; settings: Homo sapiens; breast, MDA-MB-231, 48 h
Procedure: as §1, §2

HCT-116 = experiment: PrestoBlue cell viability, HCT-116; type: cell-based; settings: Homo sapiens; colon, HCF116 (HCT-116), 48 h
Procedure: as §1, §2

HL-60 = experiment: PrestoBlue cell viability, HL-60; type: cell-based, Human; settings: HL-60, 48 h, leukemia
Procedure: as §1, §2

CFPAC-1 = experiment: PrestoBlue cell viability, CFPAC-1; type: cell-based; settings: Homo sapiens; pancreas, CFPAC-1, 48 h
Procedure: as §1, §2

BxPC-3 = experiment: PrestoBlue cell viability, BxPC-3; type: cell-based; settings: Homo sapiens; pancreas, BxPC-3, 48 h
Procedure: as §1, §2

WI-38 = experiment: PrestoBlue toxicity test, normal cells WI-38; type: cell-based, Human; settings: WI-38, 48 h
Procedure: as §1, §2

HUVEC = experiment: PrestoBlue toxicity test, normal cells HUVEC; type: cell-based, Human; settings: 48 h
Procedure: as §1, §2

K562 = experiment: PrestoBlue cell viability, K562; type: cell-based, Human; settings: for pIC50: Homo sapiens, leukemia, K562, 48 h
Procedure: as §1, §2

WI-26 = experiment: PrestoBlue toxicity test, normal cells WI-26; type: cell-based, Human; settings: WI-26, 48 h
[1] = Homo sapiens, NCI-H460, H460, 48 h

SMILES | pIC50 (H1299) | pIC50 (H1650) | pIC50 (H1975) | pIC50 (HCC827) | pIC50 (H146) | pIC50 (MCF-7) | pIC50 (MDA-MB-231) | pIC50 (HCT-116) | pIC50 (HL-60; Homo sapiens) | pIC50 (CFPAC-1) | pIC50 (BxPC-3) | pIC50 (WI-38; Homo sapiens) | pIC50 (HUVEC; Homo sapiens) | pIC50 (A549; Homo sapiens, A549, 48 h, lung) | pIC50 (H460; Homo sapiens, NCI-H460, 48 h) | pIC50 (HL-60) | pIC50 (K562) | pIC50 (WI-38) | pIC50 (WI-26; Homo sapiens, 48 h) | pIC50 (HUVEC) | also measured
COc1cc([C@@H]2c3cc4c(cc3[C@@H](O[C@@H]3O[C@@H]5CO[C@@H](C)O[C@H]5[C@H](O)[C@H]3O)[C@H]3COC(=O)[C@H]23)OCO4)cc(OC)c1O [Etoposide, reference compound] | 4.40 | < 4.30 | < 4.30 | < 4.30 | < 4.30 | < 4.30 | < 4.30 | 5.14 | 5.61 | 4.38 | < 4.30 | < 4.30 | < 4.30 | – | – | – | – | – | – | – | pIC50 (A549; Homo sapiens; lung, A549, 48 h): 5.67; pIC50 (H460; [1]): 6.01
COc1cc([C@@H]2C3=C(COC3=O)Cc3cc4c(cc32)OCO4)cc(OC)c1OC(C)=O [example 1, Acetic acid (5S)-2,6-dimethoxy-4-(6-oxo-5,6,8,9-tetrahydrofuro[3′,4′:6,7]naphtho[2,3-d][1,3]dioxol-5-yl)-phenyl ester] | < 4.30 | < 4.30 | < 4.30 | < 4.30 | < 4.30 | < 4.30 | < 4.30 | 6.89 | – | < 4.30 | < 4.30 | ≤ 4.30 | ≤ 4.30 | 7.19 | 7.22 | 7.52 | < 4.30 | < 4.30 | ≤ 4.30 | < 4.30 | pIC50 (WI-26): < 4.30
COc1cc([C@@H]2C3=C(COC3=O)Cc3cc4c(cc32)OCO4)cc(OC)c1OC(=O)c1ccccc1 [example 2, Benzoic acid (5S)-2,6-dimethoxy-4-(6-oxo-5,6,8,9-tetrahydrofuro[3′,4′:6,7]naphtho[2,3-d][1,3]dioxol-5-yl)-phenyl ester] | < 4.30 | < 4.30 | < 4.30 | < 4.30 | < 4.30 | < 4.30 | < 4.30 | 5.86 | – | < 4.30 | < 4.30 | ≤ 4.30 | ≤ 4.30 | 6.69 | 6.87 | 6.60 | < 4.30 | < 4.30 | ≤ 4.30 | < 4.30 | pIC50 (WI-26): < 4.30
COc1cc([C@@H]2C3=C(COC3=O)Cc3cc4c(cc32)OCO4)cc(OC)c1OCc1ccccc1 [example 3, (5S)-5-(4-Benzyloxy-3,5-dimethoxy-phenyl)-5,9-dihydro-8H-furo[3′,4′:6,7]naphtho[2,3-d][1,3]dioxol-6-one] | < 4.30 | < 4.30 | < 4.30 | < 4.30 | < 4.30 | < 4.30 | < 4.30 | 6.63 | – | < 4.30 | < 4.30 | ≤ 4.30 | ≤ 4.30 | – | – | 6.74 | < 4.30 | < 4.30 | ≤ 4.30 | < 4.30 | pIC50 (A549; Homo sapiens; lung, A549, 48 h): 6.90; pIC50 (H460; [1]): 6.76; pIC50 (WI-26): < 4.30
COc1cc([C@@H]2C3=C(COC3=O)Cc3cc4c(cc32)OCO4)cc(OC)c1OCC1CCCCC1 [example 4, (5S)-5-(4-Cyclohexylmethoxy-3,5-dimethoxy-phenyl)-5,9-dihydro-8H-furo[3′,4′:6,7]naphtho[2,3-d][1,3]dioxol-6-one] | – | – | – | – | – | – | < 4.30 | 5.80 | < 4.30 | – | – | ≤ 4.30 | ≤ 4.30 | 6.16 | 6.10 | – | 6.40 | < 4.30 | ≤ 4.30 | < 4.30 | effects against the blood cancer cell line K562 (in words) (K562): particularly excellent effects
C=CCCOc1c(OC)cc([C@@H]2C3=C(COC3=O)Cc3cc4c(cc32)OCO4)cc1OC [example 5, (5S)-5-(4-But-3-enyloxy-3,5-dimethoxy-phenyl)-5,9-dihydro-8H-furo[3′,4′:6,7]naphtho[2,3-d][1,3]dioxol-6-one] | – | – | – | – | – | – | < 4.30 | < 4.30 | < 4.30 | – | – | ≤ 4.30 | ≤ 4.30 | ≤ 4.30 | ≤ 4.30 | – | – | < 4.30 | ≤ 4.30 | < 4.30 | pIC50 (A549; lung, A549, 48 h): < 4.30; pIC50 (H460; H460, 48 h): < 4.30
COc1cc([C@@H]2C3=C(COC3=O)Cc3cc4c(cc32)OCO4)cc(OC)c1OCc1ccc(F)cc1 [example 6, (5S)-5-[3,5-Dimethoxy-4-(4-fluorobenzyloxy)-phenyl]-5,9-dihydro-8H-furo[3′,4′:6,7]naphtho[2,3-d][1,3]dioxol-6-one] | – | – | – | – | – | – | < 4.30 | < 4.30 | < 4.30 | – | – | ≤ 4.30 | ≤ 4.30 | 6.54 | 6.36 | – | 6.61 | < 4.30 | ≤ 4.30 | < 4.30 | effects against the blood cancer cell line K562 (in words) (K562): particularly excellent effects
COc1cc([C@@H]2C3=C(COC3=O)Cc3cc4c(cc32)OCO4)cc(OC)c1OCc1ccc(C(F)(F)F)cc1 [example 7, (5S)-5-[3,5-Dimethoxy-4-(4-trifluoromethyl-benzyloxy)-phenyl]-5,9-dihydro-8H-furo[3′,4′:6,7]naphtho[2,3-d][1,3]dioxol-6-one] | – | – | – | – | – | – | < 4.30 | < 4.30 | < 4.30 | – | – | ≤ 4.30 | ≤ 4.30 | ≤ 4.30 | ≤ 4.30 | – | – | < 4.30 | ≤ 4.30 | < 4.30 | pIC50 (A549; lung, A549, 48 h): < 4.30; pIC50 (H460; H460, 48 h): < 4.30
COc1cc([C@@H]2C3=C(COC3=O)Cc3cc4c(cc32)OCO4)cc(OC)c1OCc1ccc(C)cc1 [example 8, (5S)-5-[3,5-Dimethoxy-4-(4-methyl-benzyloxy)-phenyl]-5,9-dihydro-8H-furo[3′,4′:6,7]naphtho[2,3-d][1,3]dioxol-6-one] | – | – | – | – | – | – | < 4.30 | < 4.30 | < 4.30 | – | – | ≤ 4.30 | ≤ 4.30 | ≤ 4.30 | ≤ 4.30 | – | – | < 4.30 | ≤ 4.30 | < 4.30 | pIC50 (A549; lung, A549, 48 h): < 4.30; pIC50 (H460; H460, 48 h): < 4.30
